The results in this text go back to US20250282768A1 (Janssen Pharmaceutica NV, priority 2022, published 2025).

This test deals with p-IKKa levels in L363 (NIK translocated multiple myeloma) cells. Kind of test: Assay 2: Effect of compounds on p-IKKa levels in L363 (NIK translocated multiple myeloma) cells. It is filed as cell-based. The following applies: Homo sapiens, L-363, 6 h, read-out: Assay 2 IC50 (nM), p-IKKa (Ser 176/180) in BAFF stimulated L363 cells with MG132, 6 h; average if tested more than once. The gist of the method: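 Read-out is p-IKKa Ser176/180 by AlphaLISA SureFire in lysates. Cells were BAFF-primed (250 ng/ml) overnight or left unstimulated, then exposed 6 h at 37 °C to compound with MG132 (10 μM), 0.3% DMSO. IC50 from sigmoidal curve fit, normalized between stimulated and unstimulated controls.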
For the compound `C[C@H](CC(F)(F)F)Nc1nccc(-c2cccc(-c3cc([C@]4(O)CCN(C)C4=O)on3)n2)n1` (single isomer, unassigned) [Example 438, (R)-3-Hydroxy-1-methyl-3-(3-(6-(2-(((*R)-4,4,4-trifluorobutan-2-yl)amino)pyrimidin-4-yl)pyridin-2-yl)isoxazol-5-yl)pyrrolidin-2-one], the IC50 lay within 50 to 500 nM.

As to `CN1CC[C@@](O)(c2cc(-c3cccc(-c4ccnc(N[C@H]5CCSC5)n4)n3)no2)C1=O` (single isomer, unassigned) [Example 457, (R)-3-Hydroxy-1-methyl-3-(3-(6-(2-(((*S)-tetrahydrothiophen-3-yl)amino)pyrimidin-4-yl)pyridin-2-yl)isoxazol-5-yl)pyrrolidin-2-one], the IC50 is 50 to 500 nM.

For `CN1CC[C@@](O)(c2cc(-c3cccc(-c4ccnc(N[C@@H]5CCSC5)n4)n3)no2)C1=O` (single isomer, unassigned) [Example 458, (R)-3-Hydroxy-1-methyl-3-(3-(6-(2-(((*R)-tetrahydrothiophen-3-yl)amino)pyrimidin-4-yl)pyridin-2-yl)isoxazol-5-yl)pyrrolidin-2-one], the IC50 fell in the range of 50 to 500 nM.

Turning to `CO[C@H](CNc1nccc(-c2cccc(-c3cc([C@]4(O)CCN(C)C4=O)on3)n2)n1)C(F)(F)F` (single isomer, unassigned) [Example 462, (R)-3-Hydroxy-1-methyl-3-(3-(6-(2-(((*R)-3,3,3-trifluoro-2-methoxypropyl)amino)pyrimidin-4-yl)pyridin-2-yl)isoxazol-5-yl)pyrrolidin-2-one], the IC50 was in the range of 50 to 500 nM.

On to `CO[C@@H](CNc1nccc(-c2cccc(-c3cc([C@]4(O)CCN(C)C4=O)on3)n2)n1)C(F)(F)F` (single isomer, unassigned) [Example 463, (R)-3-Hydroxy-1-methyl-3-(3-(6-(2-(((*S)-3,3,3-trifluoro-2-methoxypropyl)amino)pyrimidin-4-yl)pyridin-2-yl)isoxazol-5-yl)pyrrolidin-2-one], for which the IC50 was 50 to 500 nM.

Regarding `CO[C@H]1COCC[C@@H]1Nc1nccc(-c2cccc(-c3cc([C@]4(O)CCN(C)C4=O)on3)n2)n1` (stereo in doubt) [Example 355, (R)-3-Hydroxy-3-(3-(6-(2-(((trans)-3-methoxytetrahydro-2H-pyran-4-yl)amino)pyrimidin-4-yl)pyridin-2-yl)isoxazol-5-yl)-1-methylpyrrolidin-2-one], the IC50 was more than 500 nM.

As to `CN1C(=O)[C@](O)(c2cc(-c3cccc(-c4ccnc(Nc5ccn(C)n5)n4)n3)no2)C[C@H]1C(F)(F)F` [Example 1, (3R,5S)-3-Hydroxy-1-methyl-3-(3-(6-(2-((1-methyl-1H-pyrazol-3-yl)amino)pyrimidin-4-yl)pyridin-2-yl)isoxazol-5-yl)-5-(trifluoromethyl)pyrrolidin-2-one], the IC50 lay in the range of 50 to 500 nM.

With `CN1CC[C@@](O)(c2cc(-c3cc(C(F)(F)F)cc(-c4ccnc(Nc5ccn(C)n5)n4)n3)no2)C1=O` [Example 2, (R)-3-Hydroxy-1-methyl-3-(3-(6-(2-((1-methyl-1H-pyrazol-3-yl)amino)pyrimidin-4-yl)-4-(trifluoromethyl)pyridin-2-yl)isoxazol-5-yl)pyrrolidin-2-one], the IC50 is less than 50 nM.

Regarding `CN1CC(F)(F)[C@@](O)(c2cc(-c3cccc(-c4ccnc(Nc5cnn(C)c5)n4)n3)no2)C1=O` [Example 3, (R)-4,4-Difluoro-3-hydroxy-1-methyl-3-(3-(6-(2-((1-methyl-1H-pyrazol-4-yl)amino)pyrimidin-4-yl)pyridin-2-yl)isoxazol-5-yl)pyrrolidin-2-one], the IC50 is less than 50 nM.

In the case of `CN1CC[C@@](O)(c2cc(-c3cc(C(F)(F)F)cc(-c4ccnc(Nc5cnn(C)c5)n4)n3)no2)C1=O` [Example 4, (R)-3-Hydroxy-1-methyl-3-(3-(6-(2-((1-methyl-1H-pyrazol-4-yl)amino)pyrimidin-4-yl)-4-(trifluoromethyl)pyridin-2-yl)isoxazol-5-yl)pyrrolidin-2-one], the IC50 is less than 50 nM.

In the case of `[2H]C1([2H])N(C)C(=O)[C@](O)(c2cc(-c3cccc(-c4ccnc(Nc5cnn(C)c5)n4)n3)no2)C1([2H])[2H]` [Example 5, (R)-3-Hydroxy-1-methyl-3-(3-(6-(2-((1-methyl-1H-pyrazol-4-yl)amino)pyrimidin-4-yl)pyridin-2-yl)isoxazol-5-yl)pyrrolidin-2-one-4,4,5,5-d4], the IC50 is less than 50 nM.

Consider `CN1C(=O)[C@](O)(c2cc(-c3cccc(-c4ccnc(Nc5cnn(C)c5)n4)n3)no2)C[C@H]1C(F)(F)F` [Example 6, (3R,5S)-3-Hydroxy-1-methyl-3-(3-(6-(2-((1-methyl-1H-pyrazol-4-yl)amino)pyrimidin-4-yl)pyridin-2-yl)isoxazol-5-yl)-5-(trifluoromethyl)pyrrolidin-2-one], for which the IC50 is 50 to 500 nM.

For the compound `[2H]C1([2H])N(C)C(=O)[C@](O)(c2cc(-c3cccc(-c4ccnc(Nc5cnn(CC)c5)n4)n3)no2)C1([2H])[2H]` [Example 7, (R)-3-(3-(6-(2-((1-Ethyl-1H-pyrazol-4-yl)amino)pyrimidin-4-yl)pyridin-2-yl)isoxazol-5-yl)-3-hydroxy-1-methylpyrrolidin-2-one-4,4,5,5-d4], the IC50 is less than 50 nM.

Regarding `[2H]C1([2H])N(C)C(=O)[C@](O)(c2cc(-c3cccc(-c4ccnc(Nc5ccn(C)n5)n4)n3)no2)C1([2H])[2H]` [Example 8, (R)-3-Hydroxy-1-methyl-3-(3-(6-(2-((1-methyl-1H-pyrazol-3-yl)amino)pyrimidin-4-yl)pyridin-2-yl)isoxazol-5-yl)pyrrolidin-2-one-4,4,5,5-d4], the IC50 was less than 50 nM.

Consider `COc1nn(C(CO)CO)cc1Nc1nccc(-c2cccc(-c3cc([C@]4(O)CCN(C)C4=O)on3)n2)n1` [Example 9, (R)-3-(3-(6-(2-((1-(1,3-Dihydroxypropan-2-yl)-3-methoxy-1H-pyrazol-4-yl)amino)pyrimidin-4-yl)pyridin-2-yl)isoxazol-5-yl)-3-hydroxy-1-methylpyrrolidin-2-one], for which the IC50 is 50 to 500 nM.

Take `CN1CCC(n2cc(Nc3nccc(-c4cccc(-c5cc([C@@]6(O)C(=O)N(C)CC6(F)F)on5)n4)n3)cn2)CC1` [Example 10, (R)-4,4-Difluoro-3-hydroxy-1-methyl-3-(3-(6-(2-((1-(1-methylpiperidin-4-yl)-1H-pyrazol-4-yl)amino)pyrimidin-4-yl)pyridin-2-yl)isoxazol-5-yl)pyrrolidin-2-one]: the IC50 lay in the range of 50 to 500 nM.

For `CN1CC[C@@](O)(c2cc(-c3cccc(-c4ccnc(N[C@H]5CCOC5)n4)c3)no2)C1=O` [Example 11, (R)-3-Hydroxy-1-methyl-3-(3-(3-(2-(((S)-tetrahydrofuran-3-yl)amino)pyrimidin-4-yl)phenyl)isoxazol-5-yl)pyrrolidin-2-one], the IC50 is more than 500 nM.

For `CN1CC[C@@](O)(c2cc(-c3cccc(-c4ccnc(N[C@@H]5CCOC5)n4)c3)no2)C1=O` [Example 12, (R)-3-Hydroxy-1-methyl-3-(3-(3-(2-(((R)-tetrahydrofuran-3-yl)amino)pyrimidin-4-yl)phenyl)isoxazol-5-yl)pyrrolidin-2-one], the IC50 was more than 500 nM.

For the compound `CN1CC[C@@](O)(c2cc(-c3cccc(-c4ccnc(N[C@H]5CC[C@H](O)C5)n4)c3)no2)C1=O` [Example 13, (R)-3-Hydroxy-3-(3-(3-(2-(((1 S,3S)-3-hydroxycyclopentyl)amino)pyrimidin-4-yl)phenyl)isoxazol-5-yl)-1-methylpyrrolidin-2-one], the IC50 is more than 500 nM.

As to `CN1CC[C@@](O)(c2cc(-c3cccc(-c4ccnc(N[C@H]5CC[C@@H](O)C5)n4)c3)no2)C1=O` [Example 14, (R)-3-Hydroxy-3-(3-(3-(2-(((1 S,3R)-3-hydroxycyclopentyl)amino)pyrimidin-4-yl)phenyl)isoxazol-5-yl)-1-methylpyrrolidin-2-one], the IC50 is more than 500 nM.

Regarding `CN1CC[C@@](O)(c2cc(-c3cccc(-c4ccnc(Nc5cnn6c5OCCC6)n4)c3)no2)C1=O` [Example 15, (R)-3-(3-(3-(2-((6,7-Dihydro-5H-pyrazolo[5,1-b][1,3]oxazin-3-yl)amino)pyrimidin-4-yl)phenyl)isoxazol-5-yl)-3-hydroxy-1-methylpyrrolidin-2-one], the IC50 is more than 500 nM.

For `COc1cn(C)nc1Nc1nccc(-c2cccc(-c3cc([C@]4(O)CCN(C)C4=O)on3)c2)n1` [Example 16, (R)-3-Hydroxy-3-(3-(3-(2-((4-methoxy-1-methyl-1H-pyrazol-3-yl)amino)pyrimidin-4-yl)phenyl)isoxazol-5-yl)-1-methylpyrrolidin-2-one], the IC50 was more than 500 nM.

For the compound `COc1nn(C)cc1Nc1nccc(-c2cccc(-c3cc([C@]4(O)CCN(C)C4=O)on3)c2)n1` [Example 17, (R)-3-Hydroxy-3-(3-(3-(2-((3-methoxy-1-methyl-1H-pyrazol-4-yl)amino)pyrimidin-4-yl)phenyl)isoxazol-5-yl)-1-methylpyrrolidin-2-one], the IC50 fell in the range of 50 to 500 nM.

Consider `CN1CC[C@@](O)(c2cc(-c3cccc(-c4ccnc(Nc5cnn6cccnc56)n4)c3)no2)C1=O` [Example 18, (R)-3-Hydroxy-1-methyl-3-(3-(3-(2-(pyrazolo[1,5-a]pyrimidin-3-ylamino)pyrimidin-4-yl)phenyl)isoxazol-5-yl)pyrrolidin-2-one], for which the IC50 is more than 500 nM.

Take `CN1CC[C@@](O)(c2cc(-c3cccc(-c4ccnc(N5CCCn6ncc(N)c65)n4)c3)no2)C1=O` [Example 19, (R)-3-(3-(3-(2-(3-Amino-6,7-dihydropyrazolo[1,5-a]pyrimidin-4(5H)-)pyrimidin-4-yl)phenyl)isoxazol-5-yl)-3-hydroxy-1-methylpyrrolidin-2-one]: the IC50 is more than 500 nM.

`CN1CC[C@@](O)(c2cc(-c3cccc(-c4ccnc(Nc5cnn6c5NCCC6)n4)c3)no2)C1=O` [Example 20, (R)-3-Hydroxy-1-methyl-3-(3-(3-(2-((4,5,6,7-tetrahydropyrazolo[1,5-a]pyrimidin-3-yl)amino)pyrimidin-4-yl)phenyl)isoxazol-5-yl)pyrrolidin-2-one]: the IC50 was more than 500 nM.
